These results are taken from patent US8916183B2, “Pesticidal compositions and processes related thereto” (priority 2012, dated 2014).

Read-outs that look alike come from different tables or passages of the source.

Common to all, as to assay type: in vivo
Assay [1] deals with Green Peach Aphid (GPA) (Myzus persicae). The assay can be described thus: Bioassay on green peach aphid (GPA), foliar spray on cabbage seedlings. The note with it: read-out: % Mortality GPA 200 ppm. In outline:
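Cabbage seedlings (2-3 true leaves), each infested a day earlier with 20-50 wingless adult and nymph GPA, were sprayed on both leaf sides to runoff, four pots per treatment. Corrected % control was calculated against solvent-check plants.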

Assay [2] relates to Beet Armyworm (BAW) (Spodoptera exigua). Put plainly: Bioassay on beet armyworm (BAW), 128-well diet tray assay. The settings on record: Spodoptera exigua, read-out: % Mortality BAW 50 μg/cm^2.
In assay [3] the test system is Corn Earworm (CEW) (Helicoverpa zea). The assay can be described thus: Bioassay on corn earworm (CEW), 128-well diet tray assay. The note with it: Helicoverpa zea, read-out: % Mortality CEW 50 μg/cm^2. In outline: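 Activity was scored as percent larval mortality per well, averaged across eight wells and reported on a rating scale. Diet trays (128-well) were kept at 25° C with 14:10 light-dark for five to seven days.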

As to `COc1cc(C)c(/N=C(/N/N=C/c2ccc(-c3ncn(-c4ccc(OC(F)(F)F)cc4)n3)cc2)SCOC(=O)C2CCCO2)c(C)c1` (stereo not drawn) [Compound 44C], the mortality at 200 ppm in assay [1] (green peach aphid, 200 ppm) came out at 0%. The mortality at 50 µg/cm2 in assay [2] (beet armyworm, 50 μg/cm^2) lay in the range of 50 to 100%; in assay [3] (corn earworm, 50 μg/cm^2), 50 to 100%.
Take `Cc1cccc(C)c1N1CCCS/C1=N\N=C\c1ccc(-c2ncn(-c3ccc(OC(F)(F)F)cc3)n2)cc1` [Compound 182C]: the mortality at 200 ppm in assay [1] (green peach aphid, 200 ppm) was in the range of 0 to 80%. Further, the mortality at 50 µg/cm2 in assay [2] (beet armyworm, 50 μg/cm^2) lay in the range of 50 to 100%; in assay [3] (corn earworm, 50 μg/cm^2) it was 50 to 100%.
With `COCCOC(C)C(=O)OCS/C(=N\c1c(C)cc(OC)cc1C)N/N=C/c1ccc(-c2ncn(-c3ccc(OC(F)(F)F)cc3)n2)cc1` (stereo not drawn) [Compound 42C], in assay [1] (green peach aphid, 200 ppm), the mortality at 200 ppm is 0%. Also, the mortality at 50 µg/cm2 was in the range of 50 to 100% in assay [2] (beet armyworm, 50 μg/cm^2) and 50 to 100% in assay [3] (corn earworm, 50 μg/cm^2).
Regarding `Cc1ccccc1N1/C(=N/N=C/c2ccc(-c3ncn(-c4ccc(OC(F)(F)F)cc4)n3)cc2)SCC1C` (stereo not drawn) [Compound 154C], the mortality at 200 ppm in assay [1] (green peach aphid, 200 ppm) lay in the range of 0 to 80%. The mortality at 50 µg/cm2 in assay [2] (beet armyworm, 50 μg/cm^2) lay in the range of 50 to 100%; in assay [3] (corn earworm, 50 μg/cm^2) it was 50 to 100%.
Consider `O=C1CS/C(=N\N=C\c2ccc(-c3ncn(-c4ccc(OC(F)(F)F)cc4)n3)cc2)N1c1c(Cl)cccc1Cl` [Compound 70C], for which, in assay [1] (green peach aphid, 200 ppm), the mortality at 200 ppm stood at 0%. Also, the mortality at 50 µg/cm2 in assay [2] (beet armyworm, 50 μg/cm^2) lay within 50 to 100%; in assay [3] (corn earworm, 50 μg/cm^2), 50 to 100%.
On to `CCC(C)c1ccccc1N1CCCS/C1=N\N=C\c1ccc(-c2ncn(-c3ccc(OC(F)(F)F)cc3)n2)cc1` (stereo not drawn) [Compound 183C], for which, in assay [1] (green peach aphid, 200 ppm), the mortality at 200 ppm is 0%. The mortality at 50 µg/cm2 in assay [2] (beet armyworm, 50 μg/cm^2) was in the range of 50 to 100%; in assay [3] (corn earworm, 50 μg/cm^2), 50 to 100%.
Take `COc1cc(C)c(/N=C(/N/N=C/c2ccc(-c3ncn(-c4ccc(OC(F)(F)F)cc4)n3)cc2)SCOC(=O)C(C)C)c(C)c1` [Compound 27C]: the mortality at 200 ppm in assay [1] (green peach aphid, 200 ppm) was in the range of 0 to 80%. For the same molecule, the mortality at 50 µg/cm2 in assay [2] (beet armyworm, 50 μg/cm^2) was 50 to 100%; in assay [3] (corn earworm, 50 μg/cm^2), 50 to 100%.
For `FC(F)(F)Oc1ccc(-n2cnc(-c3ccc(/C=N/N=C4\SCCCN4c4ccccc4-c4ccccc4)cc3)n2)cc1` [Compound 194C], the mortality at 200 ppm in assay [1] (green peach aphid, 200 ppm) was in the range of 0 to 80%. Besides, the mortality at 50 µg/cm2 was in the range of 50 to 100% in assay [2] (beet armyworm, 50 μg/cm^2) and 50 to 100% in assay [3] (corn earworm, 50 μg/cm^2).
`Cc1cccc(C)c1/N=C(/N/N=C/c1ccc(-c2ncn(-c3ccc(OC(F)(F)F)cc3)n2)cc1)SCc1ccc(S(C)(=O)=O)cc1` [Compound 17C]: in assay [1] (green peach aphid, 200 ppm), the mortality at 200 ppm fell in the range of 0 to 80%. Besides, the mortality at 50 µg/cm2 lay within 50 to 100% in assay [2] (beet armyworm, 50 μg/cm^2) and 50 to 100% in assay [3] (corn earworm, 50 μg/cm^2).
Regarding `COc1ccc(N2CCS/C2=N\N=C\c2ccc(-c3ncn(-c4ccc(OC(F)(F)F)cc4)n3)cc2)c(C)c1` [Compound 137C], the mortality at 200 ppm in assay [1] (green peach aphid, 200 ppm) came to 0%. Also, the mortality at 50 µg/cm2 in assay [2] (beet armyworm, 50 μg/cm^2) was 50 to 100%; in assay [3] (corn earworm, 50 μg/cm^2) it was 50 to 100%.
As to `COCCOC(C)C(=O)OCS/C(=N\c1c(C)cccc1C)N/N=C/c1ccc(-c2ncn(-c3ccc(OC(F)(F)F)cc3)n2)cc1` (stereo not drawn) [Compound 41C], the mortality at 200 ppm in assay [1] (green peach aphid, 200 ppm) worked out at 0%. The mortality at 50 µg/cm2 in assay [2] (beet armyworm, 50 μg/cm^2) was 50 to 100%; in assay [3] (corn earworm, 50 μg/cm^2) it was 50 to 100%.
Regarding `COc1ccc(N2/C(=N/N=C/c3ccc(-c4ncn(-c5ccc(OC(F)(F)F)cc5)n4)cc3)SCC2(C)O)c(C)c1` (stereo not drawn) [Compound 245C], the mortality at 200 ppm in assay [1] (green peach aphid, 200 ppm) lay in the range of 0 to 80%. Also, the mortality at 50 µg/cm2 fell in the range of 50 to 100% in assay [2] (beet armyworm, 50 μg/cm^2) and 50 to 100% in assay [3] (corn earworm, 50 μg/cm^2).
As to `COc1ccc(N2CCCS/C2=N\N=C\c2ccc(-c3ncn(-c4ccc(OC(F)(F)F)cc4)n3)cc2)cc1` [Compound 202C], the mortality at 200 ppm in assay [1] (green peach aphid, 200 ppm) was in the range of 0 to 80%. The mortality at 50 µg/cm2 is 50 to 100% in assay [2] (beet armyworm, 50 μg/cm^2) and 50 to 100% in assay [3] (corn earworm, 50 μg/cm^2).
As to `Cc1cccc(C)c1/N=C(/N/N=C/c1ccc(-c2ncn(-c3ccc(OC(F)(F)F)cc3)n2)cc1)SCC(=O)NC[C@@H]1CCCNC1` [Compound 62C, (1Z,2E)-2-oxo-2-(((R)-piperidin-3-ylmethyl)amino)ethyl N-(2,6-dimethylphenyl)-2-(4-(1-(4-(trifluoromethoxy)phenyl)-1H-1,2,4-triazol-3-yl)benzylidene)hydrazinecarbimidothioate trifluoroacetic acid], the mortality at 200 ppm in assay [1] (green peach aphid, 200 ppm) is 0 to 80%. In addition, the mortality at 50 µg/cm2 in assay [2] (beet armyworm, 50 μg/cm^2) lay in the range of 50 to 100%; in assay [3] (corn earworm, 50 μg/cm^2), 50 to 100%.
Consider `Cc1cccc(C)c1/N=C(/N/N=C/c1ccc(-c2ncn(-c3ccc(OC(F)(F)F)cc3)n2)cc1)SCc1c(-c2ccccc2)noc1C` [Compound 20C], for which, in assay [1] (green peach aphid, 200 ppm), the mortality at 200 ppm is 0%. In addition, the mortality at 50 µg/cm2 in assay [2] (beet armyworm, 50 μg/cm^2) was in the range of 50 to 100%; in assay [3] (corn earworm, 50 μg/cm^2), 50 to 100%.
Consider `Fc1cccc(Cl)c1N1CCCS/C1=N\N=C\c1ccc(-c2ncn(-c3ccc(OC(F)(F)F)cc3)n2)cc1` [Compound 188C], for which the mortality at 200 ppm in assay [1] (green peach aphid, 200 ppm) was 0 to 80%. Further, the mortality at 50 µg/cm2 fell in the range of 50 to 100% in assay [2] (beet armyworm, 50 μg/cm^2) and 50 to 100% in assay [3] (corn earworm, 50 μg/cm^2).
In the case of `COc1cc(C)c(/N=C(/N/N=C/c2ccc(-c3ncn(-c4ccc(OC(F)(F)F)cc4)n3)cc2)SCOC(=O)CNC(=O)OCc2ccccc2)c(C)c1` [Compound 28C], in assay [1], the mortality at 200 ppm lay within 0 to 80%. The mortality at 50 µg/cm2 in assay [2] and in assay [3] was 50 to 100% each time.
